In one assay the target is CDK9/CycT1 (Homo sapiens (Human), UniProt P50750). As to the kind of experiment: CDK9/CycT1 kinase assay (TR-FRET). In kind it is biochemical. Conditions: Method 1. An outline of the steps:
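Recombinant full-length His-tagged human CDK9/CycT1, insect-cell expressed and Ni-NTA purified. Substrate is a biotinylated peptide (biotin-Ttds-linked). Kinase inhibition is read out by TR-FRET.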

In assay [1] the test system is DU145, hormone-independent human prostate carcinoma cells. Put plainly: Proliferation assay (crystal violet), DU145. The note with it: Method 3, read-out: Inhibition of DU145 cell proliferation, IC50. In kind it is cell-based. As for the experimental part:
(§1) Cultivated tumour cells (NCI-H460, human non-small cell lung carcinoma cells, ATCC HTB-177; DU145, hormone-independent human prostate carcinoma cells, ATCC HTB-81; HeLa-MaTu, human cervical carcinoma cells, EPO-GmbH, Berlin; HeLa-MaTu-ADR, multidrug-resistant human cervical carcinoma cells, EPO-GmbH, Berlin; HeLa human cervical tumour cells, ATCC CCL-2; Caco-2 human colorectal carcinoma, ATCC HTB-37; B16F10 mouse melanoma cells, ATCC CRL-6475) were plated at a density of 5000 cells/well (DU145, HeLa-MaTu-ADR), 3000 cells/well (NCI-H460, HeLa-MaTu, HeLa), 1500 cells/well (Caco-2), or 1000 cells/well (B16 F10) in a 96-well multititer plate in 200 μL of their respective growth medium supplemented 10% fetal calf serum. After 24 hours, the cells of one plate (zero-point plate) were stained with crystal violet (see below), while the medium of the other plates was replaced by fresh culture medium (200 μL), to which the test substances were added in various concentrations (0 M, as well as in the range of […]; the final concentration of the solvent dimethylsulfoxide was 0.5%). The cells were incubated for 4 days in the presence of test substances. Cell proliferation was determined by staining the cells with crystal violet: the cells were fixed by adding 20 μL/measuring point of an 11% glutaric aldehyde solution for 15 minutes at room temperature. After three washing cycles of the fixed cells with water, the plates were dried at room temperature. The cells were stained by adding 100 μL/measuring point of a 0.1% crystal violet solution (pH 3.0). After three washing cycles of the stained cells with water, the plates were dried at room temperature. The dye was dissolved by adding 100 μL/measuring point of a 10% acetic acid solution. The absorbance was determined by photometry at a wavelength of 595 nm. The change of cell number, in percent, was calculated by normalization of the measured values to the absorbance values of the zero-point plate (=0%) and the absorbance of the untreated (0 M) cells (=100%). The IC50 values were determined by means of a 4 parameter fit.

In assay [2] the test system is B16F10 mouse melanoma cells. Put plainly: Proliferation assay (crystal violet), B16F10. In kind it is cell-based. The note with it: Method 3, read-out: Inhibition of B16F10 cell proliferation, IC50. As for the experimental part: as §1
Assay [3] relates to HeLa-MaTu-ADR, multidrug-resistant human cervical carcinoma cells. Put plainly: Proliferation assay (crystal violet), HeLa-MaTu-ADR. It is filed as cell-based. The note with it: Method 3, read-out: Inhibition of HeLa/MaTu/ADR cell proliferation, IC50. As for the experimental part: as §1
For assay [4], the system named is Caco-2 human colorectal carcinoma. As to the kind of experiment: Proliferation assay (crystal violet), Caco-2. In kind it is cell-based. The note with it: Method 3, read-out: Inhibition of Caco-2 cell proliferation, IC50. As for the experimental part: as §1
Assay [5] relates to NCI-H460, human non-small cell lung carcinoma cells. As to the kind of experiment: Proliferation assay (crystal violet), NCI-H460. In kind it is cell-based. Conditions: Method 3, read-out: Inhibition of NCI-H460 cell proliferation, IC50. As for the experimental part:
as §1

Assay [6] concerns HeLa human cervical tumour cells. As to the kind of experiment: Proliferation assay (crystal violet), HeLa. The note with it: Method 3, read-out: Inhibition of HeLa cell proliferation, IC50. It is filed as cell-based. Here is the method: as §1
A further assay has as its target CDK2/CycE (Homo sapiens (Human), UniProt P24941). As to the kind of experiment: CDK2/CycE kinase assay (TR-FRET). In kind it is biochemical. The note with it: Method 2. An outline of the steps:
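Enzyme was GST-tagged human CDK2 with GST-tagged human CycE, expressed in Sf9 insect cells and glutathione-affinity purified. The kinase reaction used a biotinylated peptide substrate, with inhibition measured by TR-FRET.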
(In general: Time-resolved FRET reads energy transfer from a long-lived donor to a nearby acceptor.)

The mark [7] stands for this setting: Homo sapiens, DU-145, DU145 cells.
[8] abbreviates: Mus musculus, B16-F10, B16F10 cells.
Where [9] appears, read: Homo sapiens, Caco-2, Caco-2 cells.
The mark [10] stands for this setting: Homo sapiens, NCI-H460, NCI-H460 cells.

Read-outs that look alike come from different tables or passages of the source.

Chain of CDK9/CycT1 (P50750 whole entry): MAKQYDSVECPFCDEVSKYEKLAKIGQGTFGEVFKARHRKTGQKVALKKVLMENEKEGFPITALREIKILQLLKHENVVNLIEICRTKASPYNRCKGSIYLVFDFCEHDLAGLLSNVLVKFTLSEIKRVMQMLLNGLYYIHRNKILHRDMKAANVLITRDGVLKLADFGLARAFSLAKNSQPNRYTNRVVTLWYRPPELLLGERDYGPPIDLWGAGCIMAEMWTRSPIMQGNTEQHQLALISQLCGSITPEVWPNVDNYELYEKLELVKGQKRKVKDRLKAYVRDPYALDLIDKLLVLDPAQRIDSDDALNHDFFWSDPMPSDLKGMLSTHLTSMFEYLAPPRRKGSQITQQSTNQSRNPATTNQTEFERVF
Chain of CDK9/CycT1 (O60563 whole entry partner): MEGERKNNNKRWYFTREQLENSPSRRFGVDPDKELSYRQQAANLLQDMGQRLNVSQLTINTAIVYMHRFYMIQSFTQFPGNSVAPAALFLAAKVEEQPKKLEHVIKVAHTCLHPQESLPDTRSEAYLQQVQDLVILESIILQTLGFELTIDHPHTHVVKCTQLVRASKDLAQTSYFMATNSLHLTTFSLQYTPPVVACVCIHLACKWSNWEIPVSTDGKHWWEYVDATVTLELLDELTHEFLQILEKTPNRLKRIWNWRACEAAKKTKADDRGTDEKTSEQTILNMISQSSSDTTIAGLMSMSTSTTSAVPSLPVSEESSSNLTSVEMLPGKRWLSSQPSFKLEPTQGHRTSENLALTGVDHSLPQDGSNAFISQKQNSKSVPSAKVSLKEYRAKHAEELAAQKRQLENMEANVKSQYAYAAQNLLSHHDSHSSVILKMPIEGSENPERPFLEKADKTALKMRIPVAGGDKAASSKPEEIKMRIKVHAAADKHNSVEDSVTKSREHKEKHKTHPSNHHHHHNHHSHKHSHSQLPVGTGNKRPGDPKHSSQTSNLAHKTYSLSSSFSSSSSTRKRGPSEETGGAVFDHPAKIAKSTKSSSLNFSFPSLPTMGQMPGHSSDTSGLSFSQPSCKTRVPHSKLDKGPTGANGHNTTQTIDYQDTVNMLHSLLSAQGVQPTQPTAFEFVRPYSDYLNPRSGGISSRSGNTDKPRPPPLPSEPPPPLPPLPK

With `C=CCOc1cc(F)ccc1-c1ncnc(Nc2cccc(CS(C)(=N)=O)c2)n1` (racemic) [Example 85, (rac)-4-[4-Fluoro-2-(prop-2-en-1-yloxy)phenyl]-N-{3-[(S-methylsulfonimidoyl)methyl]phenyl}-1,3,5-triazin-2-amine], the IC50 against CDK9/CycT1 is 9 nM; in assay [1] (setting [7]) it was 190 nM; in assay [2] (setting [8]), 280 nM; in assay [3] (Homo sapiens, HeLa) it was 560 nM; in assay [4] (setting [9]) it was 51 nM; in assay [5] (setting [10]), 230 nM. Also, the IC50 in assay [6] (Homo sapiens, HeLa) was 330 nM; at CDK2/CycE, 380 nM.

Turning to `COc1cc(F)ccc1-c1ncnc(Nc2cccc(CS(C)(=O)=NC#N)c2)n1` (racemic) [Example 48, (rac)-[(3-{[4-(4-fluoro-2-methoxyphenyl)-1,3,5-triazin-2-yl]amino}benzyl)(methyl)oxido-λ^6-sulfanylidene]cyanamide], the IC50 stood at 13 nM against CDK9/CycT1; 280 nM in assay [1] (setting [7]); 320 nM in assay [2] (setting [8]); 400 nM in assay [3] (Homo sapiens, HeLa); 420 nM in assay [4] (setting [9]); 410 nM in assay [5] (setting [10]). Besides, the IC50 in assay [6] (Homo sapiens, HeLa) came to 330 nM; against CDK2/CycE, 630 nM.

With `CCOC(=O)N=S(C)(=O)Cc1cccc(Nc2ncnc(-c3ccccc3OCc3ccc(F)cc3)n2)c1` (racemic) [Example 42, (rac)-Ethyl [{3-[(4-{2-[(4-fluorobenzyl)oxy]phenyl}-1,3,5-triazin-2-yl)amino]benzyl}(methyl)oxido-λ^6-sulfanylidene]carbamate], the IC50 against CDK9/CycT1 was 5 nM; in assay [1] (setting [7]) it was 590 nM; in assay [2] (setting [8]), 680 nM; in assay [3] (Homo sapiens, HeLa) it was 520 nM; in assay [4] (setting [9]) it was 680 nM; in assay [5] (setting [10]), 370 nM. Also, the IC50 in assay [6] (Homo sapiens, HeLa) was found to be 610 nM; against CDK2/CycE it was 1600 nM.

Consider `C/C=C\COc1cc(F)ccc1-c1ncnc(Nc2cccc(CS(C)(=N)=O)c2)n1` (racemic) [Example 102, (rac)-4-{2-[(2Z)-But-2-en-1-yloxy]-4-fluorophenyl}-N-{3-[(S-methylsulfonimidoyl)methyl]phenyl}-1,3,5-triazin-2-amine], for which the IC50 was 7 nM against CDK9/CycT1; 95 nM in assay [1] (setting [7]); 140 nM in assay [2] (setting [8]); 140 nM in assay [3] (Homo sapiens, HeLa); 160 nM in assay [4] (setting [9]); 150 nM in assay [5] (setting [10]). In addition, the IC50 was determined as 340 nM in assay [6] (Homo sapiens, HeLa) and 800 nM at CDK2/CycE.

For `CS(=N)(=O)Cc1cccc(Nc2ncnc(-c3ccccc3OCc3ccc(F)cc3)n2)c1` (racemic) [Example 43, (rac)-4-{2-[(4-Fluorobenzyl)oxy]phenyl}-N-{3-[(S-methylsulfonimidoyl)methyl]phenyl}-1,3,5-triazin-2-amine], the IC50 against CDK9/CycT1 is 9 nM; in assay [1] (setting [7]), 800 nM; in assay [2] (setting [8]) it was 800 nM; in assay [3] (Homo sapiens, HeLa), 1100 nM; in assay [4] (setting [9]) it was 1100 nM; in assay [5] (setting [10]), 530 nM. For the same compound, the IC50 in assay [6] (Homo sapiens, HeLa) was 590 nM; against CDK2/CycE, 1900 nM.

As for `CS(=N)(=O)Cc1cccc(Nc2ncnc(-c3ccc(F)cc3OCc3ccnc(F)c3)n2)c1` (single isomer, unassigned) [Example 84, 4-{4-Fluoro-2-[(2-fluoropyridin-4-yl)methoxy]phenyl}-N-{3-[(S-methylsulfonimidoyl)methyl]phenyl}-1,3,5-triazin-2-amine], the IC50 against CDK9/CycT1 came to 3 nM; in assay [1] (DU145 cells) it was 180 nM; in assay [2] (B16F10 cells), 210 nM; in assay [3] it was 340 nM; in assay [4] (Caco-2 cells), 180 nM; in assay [5] (NCI-H460 cells), 180 nM. The IC50 in assay [6] came to 120 nM; at CDK2/CycE it was 220 nM.

`COc1cc(F)ccc1-c1ncnc(Nc2cccc(CS(C)(=O)=NC(C)=O)c2)n1` (racemic) [Example 24, (rac)-N-[(3-{[4-(4-fluoro-2-methoxyphenyl)-1,3,5-triazin-2-yl]amino}benzyl)(methyl)oxido-λ^6-sulfanylidene]acetamide]: the IC50 came to 11 nM against CDK9/CycT1; 680 nM in assay [1] (setting [7]); 940 nM in assay [2] (setting [8]); 520 nM in assay [3] (Homo sapiens, HeLa); 710 nM in assay [4] (setting [9]); 760 nM in assay [5] (setting [10]). Moreover, the IC50 in assay [6] (Homo sapiens, HeLa) amounted to 490 nM; on CDK2/CycE it was 1800 nM.

For `CCOC(=O)N=S(C)(=O)Cc1cccc(Nc2ncnc(-c3cccc4c3OCCC4)n2)c1` (racemic) [Example 29, (rac)-Ethyl [(3-{[4-(3,4-dihydro-2H-chromen-8-yl)-1,3,5-triazin-2-yl]amino}benzyl)(methyl)oxido-λ^6-sulfanylidene]carbamate], the IC50 against CDK9/CycT1 was 13 nM; in assay [1] (setting [7]), 540 nM; in assay [2] (setting [8]) it was 960 nM; in assay [3] (Homo sapiens, HeLa), 760 nM; in assay [4] (setting [9]) it was 760 nM; in assay [5] (setting [10]), 720 nM. For the same compound, the IC50 in assay [6] (Homo sapiens, HeLa) was determined as 510 nM; at CDK2/CycE, 1200 nM.

In the case of `COc1cc(F)ccc1-c1ncnc(Nc2cc(F)cc(CS(C)(=O)=NC#N)c2)n1` (single isomer, unassigned) [Example 72, [(3-Fluoro-5-{[4-(4-fluoro-2-methoxyphenyl)-1,3,5-triazin-2-yl]amino}benzyl)(methyl)oxido-λ^6-sulfanylidene]cyanamide], the IC50 was determined as 5 nM on CDK9/CycT1; 110 nM in assay [1] (DU145 cells); 160 nM in assay [2] (B16F10 cells); 120 nM in assay [3]; 190 nM in assay [4] (Caco-2 cells); 160 nM in assay [5] (NCI-H460 cells). In addition, the IC50 was determined as 71 nM in assay [6] and 240 nM against CDK2/CycE.

Regarding `C=C(C)COc1cc(F)ccc1-c1ncnc(Nc2cccc(CS(C)(=N)=O)c2)n1` (racemic) [Example 99, (rac)-4-{4-Fluoro-2-[(2-methylprop-2-en-1-yl)oxy]phenyl}-N-{3-[(S-methylsulfonimidoyl)methyl]phenyl}-1,3,5-triazin-2-amine], the IC50 worked out at 2 nM at CDK9/CycT1; 120 nM in assay [1] (setting [7]); 200 nM in assay [2] (setting [8]); 180 nM in assay [3] (Homo sapiens, HeLa); 230 nM in assay [4] (setting [9]); 150 nM in assay [5] (setting [10]). In addition, the IC50 in assay [6] (Homo sapiens, HeLa) is 120 nM; against CDK2/CycE, 250 nM.

On to `COc1cc(F)ccc1-c1ncnc(Nc2cc(F)cc(CS(C)(=O)=NC#N)c2)n1` (single isomer, unassigned) [Example 71, [(3-Fluoro-5-{[4-(4-fluoro-2-methoxyphenyl)-1,3,5-triazin-2-yl]amino}benzyl)(methyl)oxido-λ^6-sulfanylidene]cyanamide], for which the IC50 was found to be 6 nM against CDK9/CycT1; 120 nM in assay [1] (setting [7]); 110 nM in assay [2] (setting [8]); 120 nM in assay [3] (Homo sapiens, HeLa); 130 nM in assay [4] (setting [9]); 160 nM in assay [5] (setting [10]). Besides, the IC50 in assay [6] (Homo sapiens, HeLa) was 100 nM; on CDK2/CycE it was 230 nM.

For the origin of these results see US9669034B2, “4-aryl-N-phenyl-1,3,5-triazin-2-amines containing a sulfoximine group” (BAYER INTELLECTUAL PROPERTY GMBH, priority 2011, dated 2017).
